Test system: OVCAR3 cells
Assay: OVCAR3 i.p. tumor model in athymic nude mice: tumor burden and ascites after 4 weeks of treatment
Assay type: in vivo
Conditions: for % Reduction Ascites / % Reduction Tumor Burden: compared to controls; for % Reduction Ascites: ascites volume at end of 4 weeks of treatment; for % Reduction Tumor Burden: treatment for 4 weeks starting 2 weeks after i.p. inoculation, VEGF-Trap s.c. twice weekly, paclitaxel i.p. 3 times weekly; for Mice with tumors in the hilus of the liver / Mice with tumors on the diaphragm: end of experiment; for Ascites formation (in words): end of 4 weeks of treatment
Method: Experimental Design. Two experiments, each with 4 groups of female athymic nude mice (5-7 wks, 20 mice/experiment, total n=40) were inoculated i.p. with OVCAR3 cells. Two weeks after inoculation, 1 group was treated with VEGF-Trap s.c. twice weekly+paclitaxel i.p. 3 times weekly for 4 weeks. The second group was treated with VEGF-Trap alone. The third group was treated with paclitaxel alone. The remaining group was treated with vehicle. At the end of the experiments, the mice were euthanized, the volume of ascites was measured and all visible tumor was excised and weighed.

Molecule | % Reduction Ascites [%] | % Reduction Ascites (listed as Paclitaxel) [%] | % Reduction Tumor Burden [%] | % Reduction Tumor Burden (listed as paclitaxel) [%] | Mice with tumors in the hilus of the liver [%] | Mice with tumors on the diaphragm | % Reduction Tumor Burden (listed as VEGF-Trap) [%] | Ascites formation (in words) (listed as VEGF trap) | Ascites formation (in words) (listed as VEGF-Trap)
CC(=O)O[C@H]1C(=O)[C@@]2(C)[C@H]([C@H](OC(=O)c3ccccc3)[C@]3(O)C[C@H](OC(=O)[C@H](O)[C@@H](NC(=O)c4ccccc4)c4ccccc4)C(C)=C1C3(C)C)[C@]1(OC(C)=O)CO[C@@H]1C[C@@H]2O [Taxol ™, paclitaxel, reference compound] | 85.4 | 85.5 | 55.9 | 54.8 | 60 | 80% |  |  | 
VEGF Trap: VEGF-receptor based trap antagonist VEGFR1R2-FcΔC1(a) (SEQ ID NOs: 1-2), capable of high affinity binding of VEGF | 96.5 |  | 56.7 |  | 60 | Ninety | 55.7 | no demonstrable ascites | Virtually no ascites developed
